Measured values from patent publication US20230270696A1, “MEDICINAL USE OF FINGOLIMOD IN PREVENTION AND TREATMENT OF NEURODEGENERATIVE DISEASES CAUSED BY SPHINGOLIPID DISORDERS” (priority 2020, published 2023).
Where a name gives a salt, the structure may show the parent alone.

How the values were obtained:
[1] = system: ATP13A2 KO neurodegenerative disease model mice; assay: Expression of genes related to sphingolipid metabolism in orbitofrontal cortex; type: in vivo, mouse; conditions: one week after i.p. 0.5 mg/kg
Experimental: Red (dark) color indicates high expression and blue (light) color indicates low expression.
Experimental method: the experiment is divided into 4 groups: C57BL/6 normal WT mice+normal saline control group (WT+C group), ATP13A2 KO neurodegenerative disease model mice+normal saline control group (KO+C group), normal WT mice+FTY720 group (WT+FTY720 group), and ATP13A2 KO neurodegenerative disease model mice+FTY720 group (KO+FTY720 group). One week after intraperitoneal injection of FTY720 (0.5 mg/kg), samples are extracted from the orbitofrontal cortex area of mouse brain tissue, and Smpd1 Smpd2 Smpd3 Smpd4 Enpp7 Asah1 Asah2 Acer1 Acer2 Acer3 Cers1 Cers2 Cers3 Cers4 Cers5 Cers6 Col4a3 bp Cerk Gba Ugcg Degs1 Degs2 Sgpl1 Sptlc1 Sptic2 Sptic3 Abca1 Abca2 Abca7 Abca12 Abcc1 Abcg1 Abcg2 Sgms1 Sgms2 Cftr Sphk1 Sphk2 Slpr1 Kit Hexa Hexb Gal3st1 Gaphdh TERC TERT Ki67, etc. totally 47 genes related to sphingolipid metabolism are analyzed for comparison.

[2] = system: ATP13A2 KO neurodegenerative disease model mice; assay: Brain tissue neurotransmitter content by HPLC; type: in vivo, mouse; conditions: one week after i.p. 0.5 mg/kg, striatum, hypothalamus, substantia nigra
Experimental: Experimental method: the experiment is divided into four groups: C57BL/6 normal WT mice+normal saline control group (WT+C group), ATP13A2 KO neurodegenerative disease model mice+normal saline control group (KO+C group), normal WT mice+FTY720 group (WT+FTY720 group), and ATP13A2 KO neurodegenerative disease model mice+FTY720 group (KO+FTY720 group). One week after mice are injected intraperitoneally with FTY720 (0.5 mg/kg), samples are taken from the striatum, hypothalamus, and substantia nigra of mouse brain tissue to extract neurotransmitters in the brain. Using a high performance liquid chromatography, neurotransmitters such as dopamine, serotonin, and γ-aminobutyric acid are analyzed.

[3] = system: ATP13A2 KO neurodegenerative disease model mice; assay: Transmission electron microscopy of brain tissue (lipofuscin deposition, axonal myelin sheath tearing); type: in vivo, mouse; conditions: two weeks after oral administration, TEM
Description: Experimental method: The experiments are divided into three groups: C57BL/6 wild normal mice (WT), ATP13A2 KO neurodegenerative disease model mice+normal saline control (KO+C), and FTY720 treatment ATP13A2 KO mice (KO+FTY720). Mice are executed two weeks after oral administration, and brain tissue is removed and fixed for transmission electron microscopy analysis.

[4] = system: ATP13A2 KO neurodegenerative disease model mice; assay: Lipidomic assay of striatum brain tissue (LC-MS); type: in vivo, mouse; conditions: one week after i.p. 0.5 mg/kg
Experimental: Experimental method: the experiment is divided into 4 groups: C57BL/6 normal WT mice+normal saline control group (WT+C group), ATP13A2 KO neurodegenerative disease model mice+normal saline control group (KO+C group), normal WT mice+FTY720 group (WT+FTY720 group), and ATP13A2 KO neurodegenerative disease model mice+FTY720 group (KO+FTY720 group). One week after intraperitoneal injection of FTY720 (0.5 mg/kg), mice are sampled from the striatum of brain tissue, lipids are extracted from the brain tissue samples using a lipid extraction method, appropriate internal standards are added. All lipid analysis is performed in electrospray ionization (ESI) mode using a liquid mass spectrometer.

[5] = system: aged ATP13A2 KO paraplegic mouse; assay: Standing in beaker and hind limb foot-based angle (FBA) before and after drug administration; type: in vivo
Experimental: (§1) Experimental method: The experiment is divided into four groups: C57BL/6 normal WT mice+normal saline control group (WT+C group), ATP13A2 KO aged disease model mice+normal saline control group (KO+C group), normal WT mice+FTY720 group (WT+FTY720 group), and ATP13A2 KO neurodegenerative disease model mice+FTY720 group (KO+FTY720 group). The mice are administered orally (0.5 mg/kg/day), and after two weeks, the movement function of the mice is examined using the standing test and the rotating rod test.
Meanwhile, the same aged ATP13A2 KO neurodegenerative disease mouse is placed in an upright glass beaker to observe its standing (FIG. 19). […] The angle of the hind limb to the ground (FBA, foot-based angle) in the aged ATP13A2 KO paraplegic mouse is also measured.

sphingomyelinase = assay: Sphingomyelinase activity assay (Sphingomyelinase Assay Kit ab138876) with or without FTY720; type: biochemical; conditions: different sphingomyelinase concentrations, sphingomyelin as substrate, 60 min at 37° C., absorbance
Experimental: Different concentrations (horizontal axis) of purified sphingomyelinase are added in the presence or absence of FTY720 and incubation proceeded for 60 min at 37° C., before measuring sphingomyelin breakdown in absorbance. Blue line (top line): value of sphingomyelinase activity under normal control conditions, red line (bottom line): value of sphingomyelinase activity in the presence of FTY720.
Embodiment 4: Direct inhibition of sphingomyelinase by FTY720 Experimental method: FTY720 is purchased from Sigma, Cas No. 162359-56-0. Sphingomyelinase activity is determined using the Sphingomyelinase Assay Kit (ab138876) kit. The experiment is divided into two groups: normal sphingomyelinase activity assay group and sphingomyelinase activity assay group in the presence of FTY720.

[6] = system: MEF cells deficient in ATP13A2; assay: Drug screening: intracellular sphingomyelin (SM C18) content by mass spectrometry; type: cell-based, mouse; conditions: ATP13A2 KO MEF cells treated 48 hours (FIG. 8 legend: 10 μM, 37° C., 24 h)
Experimental: Experimental method: ten potential sphingolipid metabolic drugs reported in the literature for screening the modulatory effects on intracellular sphingolipids are selected, namely Fingolimod, Fluoxetine, Amitriptyline, Clomipramine, Desipramine, Siponimod, KRP-203, Amlodipine, Sertraline, Trimipramine, etc. MEF cells with disease-causing gene ATP13A2 KO are obtained using the disease model mouse embryos isolated and cultured. The MEF cells deficient in ATP13A2 are treated with the above ten drugs individually for 48 hours, and the intracellular content of sphingomyelin (SM C18) is measured by mass spectrometry.

[7] = system: ATP13A2 KO neurodegenerative disease model mice; assay: Rotating rod test of movement function; type: in vivo, mouse
Experimental: Experimental method: five drugs, including fingolimod, fluoxetine, clomipramine, desipramine, and trimipramine, are selected for oral administration (0.5 mg/kg) to diseased mice. The effect of the drugs on the movement function of the mice is examined one week after drug administration.
Experimental method: The experiment is divided into four groups: C57BL/6 normal WT mice+normal saline control group (WT+C group), ATP13A2 KO neurodegenerative disease model mice+normal saline control group (KO+C group), normal WT mice+FTY720 group (WT+FTY720 group), and ATP13A2 KO neurodegenerative disease model mice+FTY720 group (KO+FTY720 group). The mice are injected intraperitoneally with FTY720 (0.25 mg/kg/day, i.p.). 5 days later, the mice are tested for movement function using a rotating rod test.
Experimental method: The experiment is divided into four groups: C57BL/6 normal WT mice+normal saline control group (WT+C group), ATP13A2 KO neurodegenerative disease model mice+normal saline control group (KO+C group), normal WT mice+FTY720 group (WT+FTY720 group), ATP13A2 KO neurodegenerative disease model mice+FTY720 group (KO+FTY720 group). FTY720 dissolved in water is administered to mice orally administered (0.5 mg/kg/day), and one week later, the mice are tested for movement function using the rotating rod test.
Experimental method: The experiment is divided into four groups: C57BL/6 normal WT mice+normal saline control group (WT+C group), ATP13A2 KO neurodegenerative disease model mice+normal saline control group (KO+C group), normal WT mice+FTY720 group (WT+FTY720 group), and ATP13A2 KO neurodegenerative disease model mice+FTY720 group (KO+FTY720 group). A single administration (10 μg, i.c.v.) is administered to the mice by ventricular injection, and one week later, the mice are tested for movement function using the rotating rod test.
as §1

[8] = system: ATP13A2 KO spastic paraplegic model mice; assay: Standing test (number of standing per 30 minutes); type: in vivo, mouse
Experimental: 1-7 days with administration treatment on the disease model mice (shaded), 7-14 days with discontinuation treatment (unshaded), and 15-21 days with restored secondary administration treatment (shaded).
Experimental method: Spastic paraplegic ATP13A2 KO mice (KO mice) are divided into four groups and given normal saline or FTY720 dissolved in normal saline at 0.05, 0.1, and 0.5 mg/kg/day for oral administration, and the mice are tested in a standing test after 7 days of oral administration.
Experimental method: The experiment is divided into two groups: C57BL/6 wild normal mice (WT) and ATP13A2 KO spastic paraplegic model mice (KO), which are administered FTY720 0.5 mg/k/day orally at the same time, discontinued after 0-7 days of administration, and resumed after one week of discontinuation, during which the mice are tested for standing every other day.
as §1

[9] = aged ATP13A2 KO mice, oral 0.5 mg/kg/day, two weeks

Structure (SMILES): CCCCCCCCc1ccc(CCC(N)(CO)CO)cc1 [FTY720, 2-amino-2-[2-(4-octylphenyl)]-1,3-propanediol hydrochloride]
- expression of cers4, cerk and sphk1 [1]: downregulated
- expression of smpd1 and enpp7 [1]: upregulated
- neurotransmitter contents (dopamine, serotonin, γ-aminobutyric acid) in brain tissue [2]: restored to the normal group level
- number of intracellular lipofuscins in brain tissue ([3]; more than 100 cells counted): significantly reduced
- number of torn axonal myelin sheaths in brain tissue ([3]; more than 100 myelin sheaths counted): significantly reduced
- content of sphingomyelin and ceramide in striatum [4]: mostly restores to the normal group level
- standing in an upright glass beaker after drug administration ([5]; same aged ATP13A2 KO mouse before and after drug, oral 0.5 mg/kg/day): can be photographed to stand up by clinging to the beaker wall
- angle of the hind limb to the ground (FBA, foot-based angle) ([5]; same aged ATP13A2 KO paraplegic mouse before and after drug): significant increase
- sphingomyelinase activity compared to the control group (sphingomyelinase): significant decrease
- intracellular sphingomyelin (SM C18) content [6]: most obvious elevation
- duration of stay in the rotating rod ([7]; 0.25 mg/kg/day i.p., 5 days, ATP13A2 KO mice vs control group): significantly longer
- duration of stay in the rotating rod [7, 9]: significantly longer
- motor function (rotating rod), screen of five drugs ([7]; oral 0.5 mg/kg, one week after drug administration, ATP13A2 KO mice): improves the motor function of the ATP13A2 KO disease model mice among the five drugs with the most significant effect
- duration of stay in the rotating rod ([7]; oral 0.5 mg/kg/day, one week, ATP13A2 KO mice vs control group): significantly longer
- duration of stay in the rotating rod ([7]; single 10 μg i.c.v., one week later, ATP13A2 KO mice vs control group): significantly longer
- number of standing [8, 9]: significant increase
- number of standing after drug discontinuation ([8]; one week of discontinuation after 7 days oral 0.5 mg/k/day): gradual decrease
- number of standing per 30 minutes during administration ([8]; oral 0.5 mg/k/day, days 0-7, ATP13A2 KO paraplegic mice): increases significantly with increasing administration time
- number of standing per 30 minutes ([8]; oral 0.05, 0.1 and 0.5 mg/kg/day, after 7 days, ATP13A2 KO paraplegic mice): increased to different degrees in a dose-dependent manner
- number of standing after resumption of administration ([8]; resumed oral administration, days 15-21): gradual increase

Structure (SMILES): CNCCC(Oc1ccc(C(F)(F)F)cc1)c1ccccc1 (centres unmarked) [fluoxetine]
- intracellular sphingomyelin (SM C18) content [6]: most obvious elevation

Structure (SMILES): CN(C)CCCN1c2ccccc2CCc2ccc(Cl)cc21 [clomipramine]
- intracellular sphingomyelin (SM C18) content [6]: most obvious elevation

Structure (SMILES): CN(C)CCC=C1c2ccccc2CCc2ccccc21 [amitriptyline]
- intracellular sphingomyelin (SM C18) content [6]: most obvious elevation
